Laboratory results from patent US20110281834A1, “Pharmaceutical Formulations for Iontophoretic Delivery of a Corticosteroid” (priority 2008, published 2011).
Like-named read-outs stand apart in the source and are kept apart here.

Legend:
[1] = Solubility in solubilizer solutions (shaken overnight, supernatant by HPLC); assay type: physicochemical; conditions: for solubility: solubilizer solution, thermodynamic from solid, read-out: Solubility, Final conc
Procedure: Triamcinolone acetonide is poorly ionized and has a poor solubility profile; to overcome this, individual as well as combinations of potential solubilizers were tested. TMCA (2.5 mg) was mixed into 1 mL of the individual components or mixtures of potential solubilizers and shaken overnight; drug was then added to all clear solutions which were then mixed overnight. The samples were then centrifuged and the supernatants analyzed by HPLC to determine drug solubility.
DEX-P (100 mg) was mixed into 1 mL of the individual components or mixtures of potential solubilizers and shaken overnight. Additional drug (100 mg) was added to clear solutions and mixed overnight. The samples were then centrifuged and the supernatants analyzed by HPLC to determine drug solubility.

[2] = In vivo skin delivery: tape stripping (stratum corneum) and skin extraction (underlying skin); design: species or system hairless rat
Description: After wiping excess drug off the skin using a moist kimwipe, pre-weighed tape strips were placed on the area exposed to the drug and made sure they adhered to the skin by rolling with a glass rod for 30 seconds. After rolling, the tape strips were held from one end with a pair of forceps and ripped off the skin very quickly. The first strip was discarded to remove the remnants of the drug on the skin. This process was continued with 30 strips to fully remove the stratum corneum and each strip analyzed for drug content by immersing in 1 mL extraction buffer for 1 hr under gentle stirring (150 rpm). […] All tape strip extracts were analyzed with HPLC. […] TEWL values were also recorded after every five strips.
After tape stripping, the rats were euthanized and the underlying skin excised. Before proceeding for skin extraction studies, the weight of the excised skin piece was recorded. This excised skin was minced into small pieces and placed into glass vials. To this minced skin, 1 mL deionised water was added and shaken for 30 minutes on a shaker. To this 100 μL of 0.1% HCl was added and centrifuged. To the centrifuged sample 6 mL of methylene chloride was added and shaken for 30 minutes. The methylene chloride (organic) extract was then evaporated under nitrogen. The methylene chloride addition and evaporation step was repeated and combined with the previous extraction. After evaporation, the samples were reconstituted using 1 mL of acetonitrile, filtered and filled in HPLC vials and analyzed accordingly. For TMCA, 30/70 chloroform and methanol was used as the extraction solvent. […] The measured drug levels from the skin were corrected for recovery.
(§1) The effect of iontophoresis on the intradermal and transdermal permeation of TMCA using hairless rat skin in vitro was investigated using methods previously described. In addition, the amount of drug deposited in the stratum corneum and underlying skin after iontophoresis was quantified in vivo using tape stripping and skin extraction methods described previously. TMCA (3.5 mg/ml) was formulated in 15% cremophor RH40, 25% PEG 400 and 25% ethanol (95%), in citrate buffer pH 5.0. Anodal iontophoresis was performed for 1 h at 0.2 mA/cm^2.
Hairless rats (n=4 per group) were anesthetized with ketamine (75 mg/kg) and xylazine (10 mg/kg) administered intraperitoneally. Once the rats were anaesthetized, the abdominal area was wiped with water and alcohol swabs. The cartridge loaded with the donor formulation was placed on the abdomen of each rat and connected to the power supply (Keithley Instruments, Cleveland, Ohio) for cathodal delivery. The counter electrode was placed around 3 cm away from the drug cartridge, and connected to the respective polarity of the power supply. The cartridge and the counter electrode were made sure to be in contact with the skin and a bandage was placed to prevent them from any further movement. Skin portion around the cartridge approximately 0.5 cm was marked for excision after the study to determine the lateral diffusion of the drug. Iontophoresis was conducted at a current density of 0.2 mA/cm^2 for 15 or 60 minutes. The donor cartridge was removed from the skin after iontophoresis and the skin was wiped with a moist kimwipe to remove any remaining drug on the skin. The skin was then tape stripped (30 strips) to remove the stratum corneum and the drug in the strips evaluated (with the first strip discarded for surface drug removal). The drug in the underlying skin was then extracted.

[3] = Iontophoretic drug permeation through hairless rat skin in Franz diffusion cells; assay type: in vitro ADME
Procedure: Full thickness abdominal skin freshly excised from sacrificed hairless rats was equilibrated in the receptor buffer and mounted on Franz diffusion cells (0.64 cm^2). The donor compartment (0.5 ml) contained corticosteroid in an appropriate buffer. […] For triamcinolone acetonide (TMCA), 3.5 mg/mL TMCA formulation (in 25% w/w PEG 400, 25% ETOH, 15% cremophor RH40, qs to 100% with citrate buffer pH 5.0) was used for the donor compartment. […] The receptor compartment for TMCA was citrate buffer with 20% ethanol. […] TMCA has no charge at pH 5 and was therefore delivered by anodal iontophoresis to utilize electroosmosis. […] For TMCA, the anode (Silver-Silver Chloride) was placed in the donor chamber along with drug solution and the cathode (Silver wire) was placed in the receptor chamber. Electric current (0.2 to 0.4 mA/cm^2) was applied using a custom current control device for up to 1 hr, after which experiments were either terminated or allowed to continue passively for various durations. Samples (0.3 ml) were taken from the receptor chamber at predetermined time points following iontophoresis and were replaced with the same amount of receptor buffer. The apparatus was maintained at 37° C. with constant stirring in both the donor and receptor compartments to maintain sink conditions. The samples were then analyzed by HPLC to measure drug permeation through skin. […] The mobile phase consisted of 75/25 ammonium acetate (5 mM) and acetonitrile. For TMCA, samples of receptor fluid (injection volume 20 uL, run time 8 min) were analyzed using the same HPLC system with a flow rate of 0.8 ml/min and UV detection at 237 nm. The mobile phase consisted of 70/30 methanol and water. […] Control passive experiments were conducted in the same way except for the application of electric current. Data were expressed as means±standard deviations. All experiments were performed in at least triplicate.
Samples were removed periodically from the receptor and analyzed by HPLC.
Samples were measured periodically from the receptor and analyzed by HPLC over 24 hrs.
as §1

[4] = cathodal 0.2 mA/cm2 for 15 minutes, FIG. 6B
[5] = cathodal 0.2 mA/cm^2 for 60 minutes, FIG. 6A
[6] = 3.5 mg/ml, pH 5.0, anodal iontophoresis 0.2 mA/cm^2 for 1 h
[7] = 3.5 mg/ml, pH 5.0, passive delivery

C[C@@H]1C[C@H]2[C@@H]3CCC4=CC(=O)C=C[C@]4(C)[C@@]3(F)[C@@H](O)C[C@]2(C)[C@@]1(O)C(=O)COP(=O)(O)O [DEX, dexamethasone sodium phosphate]
solubility ([1]; aqueous buffer, Phosphate buffer): 70000 µg/mL
solubility ([1]; aqueous with cosolvent or surfactant or cyclodextrin, 15% ethanol (95%), 20% PEG400, 20% glycerin, in phosphate buffer (w/w)): 156000 µg/mL
solubility ([1]; aqueous with cosolvent or surfactant or cyclodextrin, 15% ethanol (95%), 30% PEG400, 20% glycerin, in phosphate buffer (w/w)): 197000 µg/mL
drug level in the skin over time after iontophoresis (depot) ([2]; 0.2 mA/cm2 for 15 minutes, measured 0, 24 and 48 hours after, FIG. 6C): decreased slowly over time and was detectable at 48 hrs after iontophoresis
initial drug level in stratum corneum, iontophoresis 15 min [2, 4]: 13.63 ± 2.4 µg
initial drug level in underlying skin, iontophoresis 15 min [2, 4]: 1.70 ± 1.70 µg
amount in stratum corneum, iontophoresis 60 min [2, 5]: 23.70 ± 6.19 µg
amount in underlying skin, iontophoresis 60 min [2, 5]: 2.18 ± 0.69 µg
localization of drug in skin, passive ([2]; passive group, 60 minutes): all of the drug was localized in the stratum corneum layer
total delivered into skin, iontophoresis ([2]; phosphate buffer pH 7.4, cathodal 0.2 mA/cm^2 for 60 minutes, immediately after, FIG. 6A): 25.88 ± 5.91 µg
total delivered into skin, passive ([2]; phosphate buffer pH 7.4, passive treatment 60 minutes, FIG. 6A): 13.31 ± 2.69 µg
drug in peripheral skin areas outside the contact area (lateral diffusion) ([2]; skin about 0.5 cm around the cartridge): No drug was detected
permeation over time, 10 mg/mL ([3]; 10 mg/mL in phosphate buffer pH 7.4, cathodal 0.2 mA/cm^2 for 1 hr, 24 hrs, FIG. 4): lower permeation over time compared to the higher drug concentrations
cumulative permeation over 24 hrs, iontophoresis ([3]; 25 mg/mL in phosphate buffer pH 7.4, cathodal 0.4 mA/cm^2 for 1 hr, sampled 24 hrs, FIG. 2): increased quite rapidly during the initial several hours and continued to increase up to 24 hrs
cumulative permeation over 24 hrs, passive ([3]; 25 mg/mL in phosphate buffer pH 7.4, passive delivery (no current), FIG. 2): initially low but gradual increase
permeation over time, 4 hr iontophoresis ([3]; 25 mg/mL, pH 7.4, cathodal 0.4 mA/cm^2 for 4 hr, FIG. 3): highest permeation
cumulative permeation, cathodal vs anodal iontophoresis ([3]; 25 mg/mL, cathodal in phosphate buffer pH 7.4 vs anodal in citrate buffer pH 3.5, 0.4 mA/cm^2 for 2 hours, sampled for 24 hrs, FIG. 1): significant improvement in permeation compared to anodal iontophoresis
permeation over time, 25 and 50 mg/mL ([3]; 25 and 50 mg/mL in phosphate buffer pH 7.4, cathodal 0.2 mA/cm^2 for 1 hr, 24 hrs, FIG. 4): similar

CC1(C)O[C@@H]2C[C@H]3[C@@H]4CCC5=CC(=O)C=C[C@]5(C)[C@@]4(F)[C@@H](O)C[C@]3(C)[C@]2(C(=O)CO)O1 [TMCA, triamcinolone acetonide]
Solubility, Final conc ([1]; 15% cremophor, 25% ethanol, 25% PEG 400 (w/w)): 4.42 mg/mL
Solubility, Final conc ([1]; 15% cremophor, 25% ethanol, 25% PEG 3350 (w/w)): 1.98 mg/mL
solubility ([1]; aqueous with cosolvent or surfactant or cyclodextrin, 5% tween 80 (w/w)): 120 µg/mL
solubility ([1]; aqueous with cosolvent or surfactant or cyclodextrin, 15% cremophor (w/w)): 480 µg/mL
solubility ([1]; aqueous with cosolvent or surfactant or cyclodextrin, 15% cremophor, 25% ethanol (w/w)): 1380 µg/mL
solubility ([1]; aqueous with cosolvent or surfactant or cyclodextrin, 15% cremophor, 25% ethanol, 25% glycerin (w/w)): 2430 µg/mL
solubility ([1]; aqueous with cosolvent or surfactant or cyclodextrin, 15% cremophor, 50% PEG 400 (w/w)): 1240 µg/mL
solubility ([1]; aqueous with cosolvent or surfactant or cyclodextrin, 15% cremophor, 50% glycerin (w/w)): 1180 µg/mL
solubility ([1]; aqueous with cosolvent or surfactant or cyclodextrin, 25% PEG 400 (w/w)): 70 µg/mL
solubility ([1]; aqueous with cosolvent or surfactant or cyclodextrin, 25% PEG 3350 (w/w)): 80 µg/mL
solubility ([1]; aqueous with cosolvent or surfactant or cyclodextrin, 25% Propylene glycol (w/w)): 60 µg/mL
solubility ([1]; aqueous with cosolvent or surfactant or cyclodextrin, 25% ethanol (w/w)): 230 µg/mL
solubility ([1]; aqueous with cosolvent or surfactant or cyclodextrin, 25% glycerin (w/w)): 30 µg/mL
amount deposited in the underlying skin after tape stripping, iontophoresis [2, 6]: 1.15 ± 0.32 µg
amount in the stratum corneum, iontophoresis [2, 6]: 16.43 ± 1.99 µg
amount deposited in the underlying skin after tape stripping, passive [2, 7]: 0.34 ± 0.08 µg
amount in the stratum corneum, passive [2, 7]: 19.66 ± 1.35 µg
levels in the receptor chamber ([3]; 3.5 mg/ml in 15% cremophor RH40, 25% PEG 400, 25% ethanol, citrate buffer pH 5.0, with or without anodal iontophoresis 0.2 mA/cm^2 for 1 h): No detectable levels
